Values of other authors as cited in US20130338126A1, “Ophthalmic Suspension for Ocular Use” (Allergan, Inc., priority 2008, published 2013).

Columns and labels:
[1] = test system: bacterial flora in the eye
[2] = human, in vivo
[3] = test system: Corynebacterium propinquum, Staphylococcus aureus, Staphylococcus epidermidis, Streptococcus mitis, Streptococcus pneumoniae, Haemophilus influenzae; settings: both in vitro and clinically, in conjunctival infections
[4] = test system: methicillin resistant Staphylococcus aureus, and Staphylococcus epidermidis; settings: in vitro, gram-positive microorganisms
bacterial conjunctivitis [5] = settings: 0.3% ophthalmic solution, treated five days
[6] = test system: gram-negative microorganisms; settings: many gram-negative microorganisms
[7] = test system: gram-negative bacteria, including all Haemophilus influenzae isolates; settings: all study visits
bacteria = settings: in vitro
[8] = test system: Haemophylus influenzae clinical isolated cases; settings: clinical isolates
[9] = ophthalmic solution 0.3% or 0.5% w/v, 2 drops up to 8 times a day; below inferior limit of quantification, all individuals
bacterial conjunctivitis [10] = settings: day 6 of treatment
[11] = test system: topoisomerase II or gyrase mutations
[12] = topical; p<0.005
[13] = test system: 379 isolated microorganisms; settings: first day of treatment
[14] = test system: Streptococcus pneumoniae isolates; settings: all study visits
[15] = test system: Streptococcus epidermidis
[16] = test system: Staphylococcus aureus and Staphylococcus epidermidis

COc1c(N2CCNC(C)C2)c(F)cc2c(=O)c(C(=O)O)cn(C3CC3)c12 (centres unmarked) [gatifloxacin]
rate of bacterial reduction in the conjunctiva ([1]; gatifloxacin 0.3% / levofloxacin 0.5% ophthalmic solutions, one week pre-operative): 74.3% | post-operative infection (endophthalmitis) ([1]; one week pre-operative treatment, cataract surgery): None of the individuals treated develop a post-operative infection | adverse events: frequency, type, intensity or relation to causes versus ofloxacin or placebo [2]: no statistically significant differences | activity against most strains [3]: shown to be active | potency compared with ciprofloxacin, ofloxacin, levofloxacin and moxifloxacin [4]: more powerful than other quinolones | action against gram-positive cocci versus ciprofloxacin (bacterial keratitis; p<0.001): significantly superior | rate of complete ulcer healing versus ciprofloxacin (bacterial keratitis; patients with keratitis): significantly higher rate of complete ulcer healing | killing rate of etiological agents (bacterial conjunctivitis [5]): 92% | clinical cure rate (bacterial conjunctivitis [5]; culture-confirmed bacterial conjunctivitis): 77% | activity compared to ofloxacin [6]: increased activity compared to ofloxacin | effectiveness relative to ciprofloxacin (mycobacterium): four times more effective/active | sensitivity of isolates [7]: All gram-negative bacteria were also sensitive | bacterial resistance (bacteria): low | effectiveness relative to ofloxacin [8]: two times more effective | plasma levels [9]: < 5 ng/mL | rates of microbiological cure (bacterial conjunctivitis [10]): 83.3% | effect of mutations, compared to ofloxacin, ciprofloxacin, sparfloxacin and trovafloxacin [11]: less affected | penetration in the eye structures compared to ciprofloxacin [12]: better penetration in the tissue | sensitiveness of isolates [13]: 95.8% | sensitivity of isolates [14]: All Streptococcus pneumoniae isolates were sensitive | cross-resistance with aminoglycosides, macrolides and tetracycline antibiotics (pathogenic agents): No cross-resistance has been observed | cross-resistance with some other fluoroquinolones (pathogenic agents; systemic gatifloxacin): Cross-resistance has been observed | effectiveness relative to ofloxacin [15]: eight times more effective | bacterial resistance rates [16]: lower for gatifloxacin than for ciprofloxacin or norfloxacin | action when combined with amicacin and claritromicin (Mycobacterium chelonae): synergistic action | effectiveness relative to ciprofloxacin (Mycobacterium chelonae; p<0.001): more effective than ciprofloxacin
